Bounds are passed on as bounds.

A word on the IC50: it is the concentration that gives 50% inhibition. Low values mean higher potency, high ones lower potency. One may read the Dmax as the greatest extent of degradation seen.

The target in the first experiment is BCL6 (Homo sapiens (Human), UniProt P41182). In words: Immunofluorescence high content imaging of BCL6 degradation in T47D cells.
Conditions: not given
The format is cell-based. The procedure, abridged: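 T47D cells were treated for 3 days at 37 °C with 11-point 3-fold dilutions of bifunctional degrader (final top 0.1 or 1 μM). BCL6 was detected by immunofluorescence after PFA fixation, with Hoechst and cell mask counterstains, and imaged at 10×, 4 fields/well.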
The compound `CCn1c(=O)c(OCC(=O)NC)cc2cc(Nc3cc(N4CCN(C(C)(C)C5CCN(c6ccc7c(c6)C(=O)N(C6CCC(=O)NC6=O)C7=O)CC5)CC4)ncc3Cl)ccc21` (stereo not drawn) [compound 300, 2-{[6-({5-chloro-2-[4-(2-{1-[2-(2,6-dioxopiperidin-3-yl)-1,3-dioxo-2,3-dihydro-1H-isoindol-5-yl]piperidin-4-yl}propan-2-yl)piperazin-1-yl]pyridin-4-yl}amino)-1-ethyl-2-oxo-1,2-dihydroquinolin-3-yl]oxy}-N-methylacetamide] had an IC50 of less than 10 nM. On the same count and under the same terms, as for `CCn1c(=O)c(OCC(=O)NC)cc2cc(Nc3nc(N4CCC(OC5CN(CC6CN(c7ccc8c(c7)C(=O)N(C7CCC(=O)NC7=O)C8=O)C6)C5)CC4)ncc3Cl)ccc21` (stereo not drawn) [compound 309, 2-[(6-{[5-chloro-2-(4-{[1-({1-[2-(2,6-dioxopiperidin-3-yl)-1,3-dioxo-2,3-dihydro-1H-isoindol-5-yl]azetidin-3-yl}methyl)azetidin-3-yl]oxy}piperidin-1-yl)pyrimidin-4-yl]amino}-1-ethyl-2-oxo-1,2-dihydroquinolin-3-yl)oxy]-N-methylacetamide], the figure is 10 to 50 nM.

The same experiment, now with this note: T47D.
With `CCn1c(=O)c(OCC(=O)NC)cc2cc(Nc3cc(N4CCN(C(C)(C)C5CCN(c6ccc7c(c6)C(=O)N(C6CCC(=O)NC6=O)C7=O)CC5)CC4)ncc3Cl)ccc21` (stereo not drawn) [compound 300, 2-{[6-({5-chloro-2-[4-(2-{1-[2-(2,6-dioxopiperidin-3-yl)-1,3-dioxo-2,3-dihydro-1H-isoindol-5-yl]piperidin-4-yl}propan-2-yl)piperazin-1-yl]pyridin-4-yl}amino)-1-ethyl-2-oxo-1,2-dihydroquinolin-3-yl]oxy}-N-methylacetamide], the Dmax lay within 50 to 70%. The same measure, in the same setting: as for `CCn1c(=O)c(OCC(=O)NC)cc2cc(Nc3nc(N4CCC(OC5CN(CC6CN(c7ccc8c(c7)C(=O)N(C7CCC(=O)NC7=O)C8=O)C6)C5)CC4)ncc3Cl)ccc21` (stereo not drawn) [compound 309, 2-[(6-{[5-chloro-2-(4-{[1-({1-[2-(2,6-dioxopiperidin-3-yl)-1,3-dioxo-2,3-dihydro-1H-isoindol-5-yl]azetidin-3-yl}methyl)azetidin-3-yl]oxy}piperidin-1-yl)pyrimidin-4-yl]amino}-1-ethyl-2-oxo-1,2-dihydroquinolin-3-yl)oxy]-N-methylacetamide], the figure is 50 to 70%.

Still in this experiment, the particulars now being: T47D cells.
In turn, `CNC(=O)COc1cc2cc(Nc3nc(N4C[C@@H](COc5ccc6c(c5)C(=O)N(C5CCC(=O)NC5=O)C6=O)O[C@@H](C)C4)ncc3Cl)ccc2n(C(C)C)c1=O` (stereo partly drawn) [compound 383, 2-{[6-({5-chloro-2-[(25,6S)-2-({[2-(2,6-dioxopiperidin-3-yl)-1,3-dioxo-2,3-dihydro-1H-isoindol-5-yl]oxy}methyl)-6-methylmorpholin-4-yl]pyrimidin-4-yl}amino)-2-oxo-1-(propan-2-yl)-1,2-dihydroquinolin-3-yl]oxy}-N-methylacetamide] came in with a Dmax of 50 to 70% and an IC50 of 10 to 50 nM.

In turn, `CCn1c(=O)c(OCC(=O)NC)cc2cc(Nc3nc(N4CCC(CN5CCC(c6ccc7c(c6)C(=O)N(C6CCC(=O)NC6=O)C7=O)CC5)CC4)ncc3Cl)ccc21` (stereo not drawn) [compound 364, 2-{[6-({5-chloro-2-[4-({4-[2-(2,6-dioxopiperidin-3-yl)-1,3-dioxo-2,3-dihydro-1H-isoindol-5-yl]piperidin-1-yl}methyl)piperidin-1-yl]pyrimidin-4-yl}amino)-1-ethyl-2-oxo-1,2-dihydroquinolin-3-yl]oxy}-N-methylacetamide] gave a Dmax of no less than 70% and an IC50 of 10 to 50 nM. `CNC(=O)COc1cc2cc(Nc3nc(N4CCC(CN5CCC6(CC5)CN(c5ccc7c(c5)CN(C5CCC(=O)NC5=O)C7=O)C6)CC4)ncc3Cl)ccc2n(C(C)C)c1=O` (stereo not drawn) [compound 417, 2-{[6-({5-chloro-2-[4-({2-[2-(2,6-dioxopiperidin-3-yl)-1-oxo-2,3-dihydro-1H-isoindol-5-yl]-2,7-diazaspiro[3.5]nonan-7-yl}methyl)piperidin-1-yl]pyrimidin-4-yl}amino)-2-oxo-1-(propan-2-yl)-1,2-dihydroquinolin-3-yl]oxy}-N-methylacetamide] returned a Dmax of no less than 70% and an IC50 of less than 10 nM. The matching figures for `CCn1c(=O)c(OCC(=O)NC)cc2cc(Nc3nc(N4CCN([C@H]5C[C@H](COc6ccc7c(c6)C(=O)N(C6CCC(=O)NC6=O)C7=O)N(C)C5)CC4)ncc3Cl)ccc21` (stereo partly drawn) [compound 371, 2-({6-[(5-chloro-2-{4-[(3S,5R)-5-({[2-(2,6-dioxopiperidin-3-yl)-1,3-dioxo-2,3-dihydro-1H-isoindol-5-yl]oxy}methyl)-1-methylpyrrolidin-3-yl]piperazin-1-yl}pyrimidin-4-yl)amino]-1-ethyl-2-oxo-1,2-dihydroquinolin-3-yl}oxy)-N-methylacetamide]: 50 to 70% and no less than 100 nM. In turn, `CNC(=O)COc1cc2cc(Nc3nc(N4CCC(OC5CC6(C5)CN(c5cccc7c5CN(C5CCC(=O)NC5=O)C7=O)C6)CC4)ncc3Cl)ccc2n(C(C)C)c1=O` (stereo not drawn) [compound 424, 2-{[6-({5-chloro-2-[4-({2-[2-(2,6-dioxopiperidin-3-yl)-1-oxo-2,3-dihydro-1H-isoindol-4-yl]-2-azaspiro[3.3]heptan-6-yl}oxy)piperidin-1-yl]pyrimidin-4-yl}amino)-2-oxo-1-(propan-2-yl)-1,2-dihydroquinolin-3-yl]oxy}-N-methylacetamide] came in with a Dmax of no less than 70% and an IC50 of 10 to 50 nM.

The experiment is the same for the next values; noted with them: class symbols A-D, read-out: EC50 (nM)*.
In the case of `CNC(=O)COc1cc2cc(Nc3nc(N4CCC(c5cn(CCOCCOCCOCCOCC(=O)N[C@H](C(=O)N6C[C@H](O)C[C@H]6C(=O)N[C@@H](C)c6ccc(-c7scnc7C)cc6)C(C)(C)C)nn5)CC4)ncc3Cl)ccc2n(C)c1=O` [compound 108, (2S,4R)-1-((S)-2-(tert-butyl)-17-(4-(1-(5-chloro-4-((1-methyl-3-(2-(methylamino)-2-oxoethoxy)-2-oxo-1,2-dihydroquinolin-6-yl)amino)pyrimidin-2-yl)piperidin-4-yl)-1H-1,2,3-triazol-1-yl)-4-oxo-6,9,12,15-tetraoxa-3-azaheptadecanoyl)-4-hydroxy-N-((S)-1-(4-(4-methylthiazol-5-yl)phenyl)ethyl)pyrrolidine-2-carboxamide], the DC50 was 50 to 100 nM. In the case of `CNC(=O)COc1cc2cc(Nc3nc(N4CCC(OCCOCCOCCOc5cc(-c6scnc6C)ccc5CNC(=O)[C@@H]5C[C@@H](O)CN5C(=O)[C@@H](c5cc(C)no5)C(C)C)CC4)ncc3Cl)ccc2n(C)c1=O` [compound 50, (2S,4R)-N-(2-(2-(2-(2-((1-(5-chloro-4-((1-methyl-3-(2-(methylamino)-2-oxoethoxy)-2-oxo-1,2-dihydroquinolin-6-yl)amino)pyrimidin-2-yl)piperidin-4-yl)oxy)ethoxy)ethoxy)ethoxy)-4-(4-methylthiazol-5-yl)benzyl)-4-hydroxy-1-((R)-3-methyl-2-(3-methylisoxazol-5-yl)butanoyl)pyrrolidine-2-carboxamide], the DC50 was greater than 100 nM. The same measure, in the same setting: for `CNC(=O)COc1cc2cc(Nc3nc(N4CCC(OCCOCCOCCOCCOCCOc5ccc6c(c5)C(=O)N(C5CCC(=O)NC5=O)C6=O)CC4)ncc3Cl)ccc2n(C)c1=O` (stereo not drawn) [compound 64, 2-((6-((5-chloro-2-(4-((14-((2-(2,6-dioxopiperidin-3-yl)-1,3-dioxoisoindolin-5-yl)oxy)-3,6,9,12-tetraoxatetradecyl)oxy)piperidin-1-yl)pyrimidin-4-yl)amino)-1-methyl-2-oxo-1,2-dihydroquinolin-3-yl)oxy)-N-methylacetamide] the value was greater than 100 nM; for `CNC(=O)COc1cc2cc(Nc3nc(N4CCC(OCCN5CCC(N6CCC(OCC#Cc7ccc8c(c7)CN(C7CCC(=O)NC7=O)C8=O)CC6)CC5)CC4)ncc3Cl)ccc2n(C)c1=O` (stereo not drawn) [compound 143, 2-((6-((5-chloro-2-(4-(2-(4-((3-(2-(2,6-dioxopiperidin-3-yl)-1-oxoisoindolin-5-yl)prop-2-yn-1-yl)oxy)-[1,4′-bipiperidin]-1′-yl)ethoxy)piperidin-1-yl)pyrimidin-4-yl)amino)-1-methyl-2-oxo-1,2-dihydroquinolin-3-yl)oxy)-N-methylacetamide], 10 to 50 nM.

Source of the values: patent US12310975B2, “Modulators of BCL6 proteolysis and associated methods of use” (Arvinas Operations, Inc., priority 2019, dated 2025).
